This assay has as its target Tryptase (Homo sapiens, UniProt Q9BZJ3+Q15661+Q9NRR2). The experiment in a line: Compound was tested for inhibition of human mast cell tryptase. Format: protein assay.

Each structure is given as a SMILES string.

Broadly, the IC50 is the point on the concentration scale where inhibition reaches its midpoint. The low end stands for greater potency, the high end for weaker potency.

`COc1ccc(CNC(=O)CCCC(=O)OCN2C(=O)c3ccccc3S2(=O)=O)cc1` returned an IC50 of 430 nM.

As for `O=C(CCCC(=O)OCN1C(=O)c2ccccc2S1(=O)=O)NCc1ccc(Cl)c(Cl)c1`, the IC50 was found to be 230 nM.

Values taken from ChEMBL document CHEMBL1132052, “Solid-phase synthesis of benzisothiazolones as serine protease inhibitors” (Bioorg Med Chem Lett, 1999).
